Experimental data as given in ChEMBL document CHEMBL2157919, “Attenuation of collagen-induced arthritis by orally available imidazoline-based NF-κB inhibitors” (Bioorg Med Chem Lett, 2012).
Calls of active or inactive are those of the source. The calls are words filed in the database; no cut-off is given here.

How the values were obtained:
[1] = Plasma concentration in BALB/c mouse at 400 mg/kg, po after 3 hrs; type: ADME, organism-based; design: dose 400 mg/kg, route oral
[2] = Plasma concentration in BALB/c mouse at 50 mg/kg, ip after 3 hrs; type: ADME, organism-based; design: dose 50 mg/kg, route intraperitoneal
[3] = Plasma concentration in BALB/c mouse at 50 mg/kg, po after 3 hrs; type: ADME, organism-based; design: dose 50 mg/kg, route oral
[4] = Plasma concentration in BALB/c mouse at 200 mg/kg, po after 3 hrs; type: ADME, organism-based; design: dose 200 mg/kg, route oral
Mus musculus [5] = assay: Antiinflammatory activity in BALB/c mouse assessed as reduction of LPS-induced TNFalpha production in serum at 5 to 100 mg/kg, po administered 1 hr before LPS challenge measured after 3 hrs by EIA; type: functional; design: scale not given: the % may be the effect or the level left; conditions: dose mg/kg 5-100
Mus musculus [6] = assay: Antiinflammatory activity in BALB/c mouse assessed as reduction of LPS-induced TNFalpha production in serum at 5 mg/kg, po administered 1 hr before LPS challenge measured after 3 hrs by EIA relative to LPS treated control; type: functional; design: scale not given: the % may be the effect or the level left
Mus musculus [7] = assay: Antiarthritic activity in BALB/c mouse type 2 collagen antibody-induced arthritis model assessed as inhibition of disease burden at 50 mg/kg, ip qd for 14 days measured on day 20 relative to control; type: functional; conditions: route intraperitoneal
Mus musculus [8] = assay: Antiarthritic activity in BALB/c mouse type 2 collagen antibody-induced arthritis model assessed as physiological disease-modifying affect at 50 mg/kg, ip qd for 14 days measured on day 20 relative to control; type: functional, organism-based; design: dose 50 mg/kg
Mus musculus [9] = assay: Toxicity in BALB/c mouse type 2 collagen antibody-induced arthritis model assessed as change in body weight at 50 mg/kg, ip qd for 14 days measured on day 20; type: organism-based; design: dose 50 mg/kg, route intraperitoneal; conditions: in vivo, 336 h
Mus musculus [10] = assay: Antiarthritic activity in BALB/c mouse type 2 collagen antibody-induced arthritis model assessed as inhibition of disease burden at 3 mg/kg, po qd for 14 days measured on day 20 relative to control; type: functional
Mus musculus [11] = assay: Antiarthritic activity in BALB/c mouse type 2 collagen antibody-induced arthritis model assessed as physiological disease-modifying affect at 3 mg/kg, po qd for 14 days measured on day 20 relative to control; type: functional, organism-based; design: dose 3 mg/kg
Mus musculus [12] = assay: Toxicity in BALB/c mouse type 2 collagen antibody-induced arthritis model assessed as change in body weight at 3 mg/kg, po qd for 14 days measured on day 20; type: organism-based; design: dose 3 mg/kg, route oral; conditions: in vivo, 336 h
Mus musculus [13] = assay: Hepatotoxicity in BALB/c mouse assessed as increase in serum ALT level at 50 mg/kg, po after 6 hrs; type: toxicity, organism-based; design: dose 50 mg/kg, route oral; conditions: in vivo
Mus musculus [14] = assay: Hepatotoxicity in BALB/c mouse assessed as increase in serum ALT level at 150 mg/kg, po after 6 hrs; type: toxicity, organism-based; design: dose 150 mg/kg, route oral; conditions: in vivo
Mus musculus [15] = assay: Hepatotoxicity in BALB/c mouse assessed as increase in serum ALT level at 50 mg/kg, ip after 13 to 19 days; type: toxicity, organism-based; design: dose 50 mg/kg, route intraperitoneal; conditions: in vivo
Mus musculus [16] = assay: Hepatotoxicity in BALB/c mouse assessed as increase in serum ALT level at 150 mg/kg, ip after 13 to 19 days; type: toxicity, organism-based; design: dose 150 mg/kg, route intraperitoneal; conditions: in vivo
Mus musculus [17] = assay: Antiarthritic activity in BALB/c mouse type 2 collagen antibody-induced arthritis model assessed as inhibition of disease burden at 150 mg/kg, ip qd for 14 days measured on day 20 relative to control; type: functional; conditions: route intraperitoneal
Mus musculus [18] = assay: Antiarthritic activity in BALB/c mouse type 2 collagen antibody-induced arthritis model assessed as reduction of inflammation at 150 mg/kg, ip qd for 14 days measured on day 20 relative to control; type: functional, organism-based; design: dose 150 mg/kg
Mus musculus [19] = assay: Antiarthritic activity in BALB/c mouse type 2 collagen antibody-induced arthritis model assessed as reduction of pannus formation at 150 mg/kg, ip qd for 14 days measured on day 20 relative to control; type: functional, organism-based; design: dose 150 mg/kg
Mus musculus [20] = assay: Antiarthritic activity in BALB/c mouse type 2 collagen antibody-induced arthritis model assessed as reduction of cartilage damage at 150 mg/kg, ip qd for 14 days measured on day 20 relative to control; type: functional, organism-based; design: dose 150 mg/kg
Mus musculus [21] = assay: Antiarthritic activity in BALB/c mouse type 2 collagen antibody-induced arthritis model assessed as reduction of bone resorption at 150 mg/kg, ip qd for 14 days measured on day 20 relative to control; type: functional, organism-based; design: dose 150 mg/kg
Mus musculus [22] = assay: Antiarthritic activity in BALB/c mouse type 2 collagen antibody-induced arthritis model assessed as reduction of exostosis at 150 mg/kg, ip qd for 14 days measured on day 20 relative to control; type: functional, organism-based; design: dose 150 mg/kg
Mus musculus [23] = assay: Antiarthritic activity in BALB/c mouse type 2 collagen antibody-induced arthritis model assessed as physiological disease-modifying affect at 150 mg/kg, ip qd for 14 days measured on day 20 relative to control; type: functional, organism-based; design: dose 150 mg/kg
Mus musculus [24] = assay: Toxicity in BALB/c mouse type 2 collagen antibody-induced arthritis model assessed as change in body weight at 150 mg/kg, ip qd for 14 days measured on day 20; type: organism-based; design: dose 150 mg/kg, route intraperitoneal; conditions: in vivo, 336 h

Molecule `CCOC(=O)[C@]1(c2ccccc2)N=C(c2ccccc2)N(Cc2ccccc2)[C@@H]1c1ccccc1` has a concentration at 3 h [1] of 9 µM, a concentration at 3 h [2] of 6 µM and a concentration at 3 h [3] of 2 µM. The concentration at 3 h [4] was 4 µM, the Activity (Mus musculus [5]) was 50% and the Activity (Mus musculus [6]) was 50%. The inhibition in vivo at 50 mg/kg (Mus musculus [7]) was 67%, the Activity (Mus musculus [8]) was “Active” and the Activity (Mus musculus [9]) was “Non-toxic”.
With `C[C@@H]1C[C@H]2[C@@H]3CCC4=CC(=O)C=C[C@]4(C)[C@@]3(F)[C@@H](O)C[C@]2(C)[C@@]1(O)C(=O)CO` [DEXAMETHASONE] the inhibition in vivo at 3 mg/kg (Mus musculus [10]) was 102%, the Activity (Mus musculus [11]) was “Active” and the Activity (Mus musculus [12]) was “Toxic”.
For `CCOC(=O)C1(c2ccccc2)N=C(c2ccccc2)N(Cc2ccccc2)C1c1ccccc1` (racemic), the Activity (Mus musculus [13]) was “Non-toxic”, the Activity (Mus musculus [14]) was “Non-toxic” and the Activity (Mus musculus [15]) was “Non-toxic”. For the same molecule, the Activity (Mus musculus [16]) was “Non-toxic”, the inhibition in vivo at 150 mg/kg (Mus musculus [17]) was 94% and the Activity (Mus musculus [18]) was “Active”. For the same molecule, the Activity (Mus musculus [19]) was “Active”, the Activity (Mus musculus [20]) was “Active” and the Activity (Mus musculus [21]) was “Active”. The Activity (Mus musculus [22]) was “Active”, the Activity (Mus musculus [23]) was “Active” and the Activity (Mus musculus [24]) was “Non-toxic”.
